Test results from patent US12441988B2, “Engineered adult-like human heart tissue” (THE TRUSTEES OF COLUMBIA UNIVERSITY IN THE CITY OF NEW YORK, priority 2015, dated 2025).
“Also recorded” adds a separate entry of the source. Blank lines part the entries; values can stand above or below the compound they belong to.

Assays:
Type in all cases: cell-based, human
[1] = system: TS organoids; assay: Timothy Syndrome disease model, calcium transients and EADs
Description: Timothy Syndrome hiPSCs were generated and differentiated into CMs as previously described. Briefly, fibroblasts were isolated from patients with Timothy Syndrome (TS line) and a control healthy fibroblast line (#3, IMR90 cell line) and transduced by lipofection using established episomal vectors. […] 2 μM IWP-3 (Wnt inhibitor, #SML0533, Lot #102m4613V, Sigma-Aldrich) was added for days 5-11, in DF20 for days 5-7 and DF5 for day 7 onwards.
(§1) Tissues (organoids and FCTs) within culture platforms were loaded with Fluo-4 NW (50% v/v, Life Technologies) in RPMI+B27 media containing 5 μM blebbistatin (Sigma) to reduce movement artifacts, for 30 minutes at 37° C. Videos were acquired at a rate of 150 frames per second using a Pike F-032 camera (Allied Vision Technologies) controlled by the custom designed, free-source SPLASSH software. Videos were analyzed in MATLAB using a custom script that calculated the temporal changes in calcium fluorescence intensity. Specifically, each frame was normalized to a baseline background region to give baseline-corrected changes in minimum and maximum fluorescence values for each frame. This temporal change in fluorescence intensity was presented as a calcium transient trace from which measurements were obtained.
(§2) Calcium transients were analyzed to measure the irregularity of various parameters as previously described. Briefly, the calcium transient “timing” was determined as the peak-to peak value of two successive beats as defined by the peak maxima. Calcium transient “amplitude” was determined by numerically integrating the area below the peak maxima relative to the baseline. […] The average rhythmicity was defined as the ratio of the parameter standard deviation to the parameter mean of the corresponding (control, constant, intensity) tissue group. Beats with parameter measurements falling outside two standard deviations from the average rhythmicity were classified as irregular.

[2] = system: hiPS-CM organoids; assay: Dose response curves of drugs in engineered cardiac tissue (beat frequency, force, EC50); conditions: for beat frequency (BPM): engineered cardiac micro-tissue, increasing drug concentrations
Description: Tissue contractility was measured by tracking the change in the projected tissue area as a function of time. Live cell, bright field videos were acquired at rates of 150 frames per second using a Pike F-032b (Allied Vision Technologies) camera controlled with the custom […] software. Acquired video frames were inverted and an automated intensity threshold was used to identify cell location in the video frame. First, a baseline time point in the video corresponding to a relaxed tissue state was selected. Absolute differences in cell area from the baseline frame were then calculated to create a time course of cell area dynamics as a function of time. The resulting time courses were analyzed with a native MATLAB automated peak finding algorithm to determine locations of maximum cell contraction indicated by the locations of local maxima in the time courses. Beat period lengths were determined from the length of time between pairs of local maxima. Beat frequencies were determined by inverting beat periods. Contraction amplitude relaxation times were measured from the length of time required for the time course to relax in amplitude from the peak contraction amplitude of the local maxima to the calculated relaxation amplitude (e.g. the […] time was the length of time elapsed from the local maxima until the contraction time course reached 10% of the local maximum contraction difference amplitude). Drugs were diluted in standard media (RPMI+B27). […] Tissue videos were captured≥5 minutes after each dose was administered, and processed using custom image processing software as discussed above. For chronotropic drugs, bright field videos were taken at each drug concentration so that measurements of the beat frequency could be determined as a function of drug concentration. For ionotropic drugs, tissues were placed in the organ bath and force measurements were recorded as previously described at each drug concentration so that the measurements of the change in force generated could be determined as a function of drug concentration. Dose-response curves for these parameters could be constructed by using Matlab to fit the Hill Equation for sigmoid curves to the data, to determine the corresponding EC50 value.

[3] = system: hiPS-CM organoids; assay: Calcium handling (Fluo-4 calcium transients) in organoids and FCTs; conditions: for calcium transients after drug: organoids and FCTs, verapamil or 0.002 mM thapsigargin
Description: Calcium transients were analyzed using the Fluo-4 NW dye in RPMI+B27 media containing 5 μM blebbistatin to reduce movement artifacts, for 30 minutes at 37° C. Videos were acquired at a rate of 150 frames per second using a Pike F-032 camera controlled by the custom-designed, free-source SPLASSH software. Videos were analyzed in MATLAB using a custom script that calculated the temporal changes in calcium fluorescence intensity. Each frame was normalized to a baseline background region to give baseline corrected changes in minimum and maximum fluorescence values for each frame. This temporal change in fluorescence intensity was presented as a calcium transient trace. The calcium transient timing was determined as the peak-to-peak value of two successive beats as defined by the peak maxima. Calcium transient amplitude was determined by numerically integrating the area below the peak maxima relative to the baseline. […] The average rhythmicity was defined as the ratio of the parameter standard deviation to the parameter mean of the corresponding (control, constant, intensity) tissue group. Beats with parameter measurements falling outside two standard deviations from the average rhythmicity were classified as irregular.
as §1, §2

[4] = system: hiPS-CM organoids; assay: Force measurements (twitch tension, organ bath); conditions: intensity-trained organoids versus other organoids and FCTs
[5] = system: TS organoids; assay: Timothy Syndrome disease model, force generation in response to extracellular calcium; conditions: Ca2+ overload with decreased force

Compound: CNC[C@H](O)c1ccc(O)c(O)c1 [epinephrine]
incidence of EADs [1]: increased incidence of EADs

Compound: O=C1c2c(O)ccc(O)c2C(=O)c2c(NCCNCCO)ccc(NCCNCCO)c21 [mitoxantrone]
beat frequency (BPM) [2]: opposite effect

Compound: C/C=C(/C)C(=O)O[C@H]1C(C)=C2[C@H]([C@@H]1OC(=O)CCCCCCC)[C@@](C)(OC(C)=O)C[C@H](OC(=O)CCC)[C@@]1(O)[C@H]2OC(=O)[C@@]1(C)O [thapsigargin]
calcium transients after drug [3]: calcium transients ceased quickly in intensity-trained organoids

Compound: CC(C)NCC(O)c1ccc(O)c(O)c1 (stereo not drawn) [isoproterenol]
calcium transients, QT intervals, EADs under β-adrenergic stimulation [1]: increased calcium transients, prolonged QT intervals, and led to proarrhythmic EADs
beat frequency (BPM) [2]: increases with increasing concentrations
ionotropic, lusitropic and chronotropic responses ([2]; intensity-trained organoids): positive ionotropic (FIG. 23A), lusitropic (FIG. 23B), and chronotropic (FIG. 23C) responses; also recorded: dose-dependent effect on three functional properties
twitch tension [4]: responded by increasing twitch tension
twitch tension ([4]; listed as Isoprenaline): significantly increased their twitch tension

Compound: ryanodine
response to ryanodine ([3]; 1 μmol/L, early-stage versus late-stage intensity trained organoids): intensity trained early-stage but not late-stage organoids respond

intracellular calcium transients, early after-depolarizations (EADs) ([3]; intensity-trained organoids, increasing concentrations): prolonged
Compound: COc1cc(N)c(Cl)cc1C(=O)NC1CCN(CCCOc2ccc(F)cc2)CC1OC (stereo not drawn) [cisapride]
incidence of EADs [1]: increased incidence of EADs
beat frequency (BPM) [2]: opposite effect
proarrhythmic Early After Depolarizations ([3]; female cardiac organoids, 1 μM): increased proarrythmic Early After Depolarizations
proarrhythmic tendencies ([3]; other (not intensity-trained) organoids and FCTs): did not recapitulate proarrythmic tendencies

Compound: COc1ccc(CCN(C)CCCC(C#N)(c2ccc(OC)c(OC)c2)C(C)C)cc1OC (stereo not drawn) [verapamil]
rescue of the TS phenotype ([1]; therapeutic concentrations): rescued the phenotype
calcium transients after drug [3]: cessation of calcium transients in all tissues; also recorded: cessation of Ca2+ transients

Compound: Cn1c(=O)c2c(ncn2C)n(C)c1=O [caffeine]
release of Ca2+ by caffeine after nifedipine [1]: released Ca2+ back into the cytosol

Compound: CC(C)NCC(O)COc1cccc2ccccc12 (stereo not drawn) [propranolol]
force generation in response to extracellular calcium [5]: reversed some of these effects
